Experiments:
[1] = Solubility test; format: physicochemical; settings: kinetic from dmso stock; artificial intestinal juice pH 6.8, 1% DMSO, 25° C. for 16 hours
Method: The solubility of a compound was determined under a condition in which 1% DMSO was added. 10 mmol/L compound solution was prepared using DMSO, and then 6 μL of the compound solution was added to 594 μL of artificial intestinal juice in pH 6.8 (to 250 mL of 0.2 mol/L potassium dihydrogen phosphate reagent solution was added 118 mL of 0.2 mol/L NaOH reagent solution and water to provide a final volume of 1000 mL). After standing at 25° C. for 16 hours, the mixed solution was filtered with suction. The filtrate was diluted twice with methanol/water (1/1), and then a concentration in the filtration was measured with HPLC or LC/MS/MS by the absolute calibration method.

[2] = molecular target: PI-3 kinase γ (Homo sapiens, UniProt P48736); assay: PI3Kγ inhibitory activity, PI3-kinase HTRF assay (inhibition ratio); format: biochemical; settings: 0.5 h; for inhibition at 50 µM: PI3Kγ, compound at 50 μM; for inhibition at 10 µM: compound at 10 μmol/L
Procedure, shortened: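 Single-concentration inhibition ratio (50 or 10 μmol/L compound) versus no-compound (100%) and no-enzyme (0%) wells. Reaction: PI-3 kinase γ, PIP2, ATP, MgCl2/DTT, 30 min at RT after 10 min preincubation. Read-out: HTRF 665/620 nm after 18 h detection.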

[3] = molecular target: T1, CYP3A4 (Homo sapiens, UniProt P08684); assay: CYP inhibition test, pooled human liver microsome, CYP3A4; format: in vitro ADME; settings: hydroxylation of terfenadine
T1 construct: enzyme: pooled human liver microsome 0.2 mg protein/mL; from tissue; host or cells: pooled human liver microsome
From the text: (§1) O-de-ethylation of 7-ethoxyresorufin (CYP1A2), methyl-hydroxylation of tolbutamide (CYP2C9), 4′-hydroxylation of mephenyloin (CYP2C19), O-demethylation of dextromethorphan (CYP2D6), and hydroxylation of terfenadine (CYP3A4), which are typical substrate for metabolic reactions of human main CYP5 molecular species (CYP1A2, 2C9, 2C19, 2D6, and 3A4), were adopted as indexes.
(§2) The reaction conditions are as follows: substrate: 0.5 μmol/L of ethoxyresorufin (CYP1A2), 100 μmol/L of tolbutamide (CYP2C9), […] of S-mephenyloin (CYP2C19), 5 μmol/L of dextromethorphan (CYP2D6), and 1 μmol/L of terfenadine (CYP3A4); reaction time; 15 minutes; reaction temperature: 37° C.; enzyme: pooled human liver microsome 0.2 mg protein/mL; test drug concentration: 1, 5, 10, and 20 μmol/L (4 points).
(§3) In a 96-well plate, as a reaction solution, five kinds of substrates, a human liver microsome, and a test drug were added to 50 mmol/L Hepes buffer solution in the aforementioned ratio. A coenzyme NADPH was added to start a metabolic reaction, which is an index. After reacting at 37° C. for 15 minutes, a solution of methanol/acetonitrile (1/1 (v/v)) was added to quench the reaction. After centrifugation at 3000 rpm for 15 minutes, resorufin (CYP1A2 metabolite) in the supernatant was quantitated with a fluorescence multilabel counter, and hydroxylated tolbutamide (CYP2C9 metabolite), 4′-hydroxylated mephenyloin (CYP2C19 metabolite), […], terfenadine in alcohol form (CYP3A4 metabolite) were quantitated with LC/MS/MS.
(§4) The case wherein only DMSO (a solvent which dissolved a drug) was added to a reaction system was defined as a control (100%). When a test drug solution was added, the remaining activity (%) at each concentration was calculated, and then IC50 was calculated with a concentration and an inhibition ratio by an inverse estimation using a logistic model.

[4] = molecular target: T2, CYP2C9 (Homo sapiens, UniProt P11712); assay: CYP inhibition test, pooled human liver microsome, CYP2C9; format: in vitro ADME; settings: methyl-hydroxylation of tolbutamide
T2 construct: enzyme: pooled human liver microsome 0.2 mg protein/mL; from tissue; host or cells: pooled human liver microsome
From the text: as §1, §2, §3, §4

[5] = molecular target: T3, CYP1A2 (Homo sapiens, UniProt P05177); assay: CYP inhibition test, pooled human liver microsome, CYP1A2; format: in vitro ADME; settings: O-de-ethylation of 7-ethoxyresorufin
T3 construct: enzyme: pooled human liver microsome 0.2 mg protein/mL; from tissue; host or cells: pooled human liver microsome
T3 sequence (P05177 1-516): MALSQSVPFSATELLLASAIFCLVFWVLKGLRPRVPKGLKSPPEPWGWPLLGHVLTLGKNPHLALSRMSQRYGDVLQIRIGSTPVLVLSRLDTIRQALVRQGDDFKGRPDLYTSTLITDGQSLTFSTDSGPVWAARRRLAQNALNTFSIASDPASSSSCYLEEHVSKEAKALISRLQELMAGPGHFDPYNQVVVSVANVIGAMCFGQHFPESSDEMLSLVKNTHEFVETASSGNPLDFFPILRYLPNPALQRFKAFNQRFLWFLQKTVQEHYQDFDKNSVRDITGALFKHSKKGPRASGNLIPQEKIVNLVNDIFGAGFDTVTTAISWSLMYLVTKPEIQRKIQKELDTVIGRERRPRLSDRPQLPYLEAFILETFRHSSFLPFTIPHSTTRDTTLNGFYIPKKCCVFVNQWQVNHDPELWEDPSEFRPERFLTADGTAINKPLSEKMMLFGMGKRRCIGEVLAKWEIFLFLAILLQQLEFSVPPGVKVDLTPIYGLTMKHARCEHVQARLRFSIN
From the text: as §1, §2, §3, §4

[6] = molecular target: T4, CYP2C19 (Homo sapiens, UniProt P33261); assay: CYP inhibition test, pooled human liver microsome, CYP2C19; format: in vitro ADME; settings: 4′-hydroxylation of mephenyloin
T4 construct: enzyme: pooled human liver microsome 0.2 mg protein/mL; from tissue; host or cells: pooled human liver microsome
From the text: as §1, §2, §3, §4

[7] = molecular target: T5, CYP2D6 (Homo sapiens, UniProt P10635); assay: CYP inhibition test, pooled human liver microsome, CYP2D6; format: in vitro ADME; settings: O-demethylation of dextromethorphan
T5 construct: enzyme: pooled human liver microsome 0.2 mg protein/mL; from tissue; host or cells: pooled human liver microsome
From the text: as §1, §2, §3, §4

T5 sequence (P10635 whole entry): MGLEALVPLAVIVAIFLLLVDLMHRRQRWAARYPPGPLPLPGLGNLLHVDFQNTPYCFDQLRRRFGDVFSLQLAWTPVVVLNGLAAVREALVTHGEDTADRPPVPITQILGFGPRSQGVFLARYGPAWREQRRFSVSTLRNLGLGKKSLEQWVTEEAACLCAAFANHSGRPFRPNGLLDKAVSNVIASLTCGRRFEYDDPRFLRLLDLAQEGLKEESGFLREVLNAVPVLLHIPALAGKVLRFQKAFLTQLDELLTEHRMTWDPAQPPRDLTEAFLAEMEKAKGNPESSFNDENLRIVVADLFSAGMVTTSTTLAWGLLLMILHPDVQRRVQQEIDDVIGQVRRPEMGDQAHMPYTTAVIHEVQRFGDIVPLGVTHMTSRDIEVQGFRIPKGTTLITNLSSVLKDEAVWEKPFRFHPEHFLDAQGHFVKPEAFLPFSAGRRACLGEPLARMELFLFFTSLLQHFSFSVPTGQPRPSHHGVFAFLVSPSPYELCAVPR
Chain of PI-3 kinase γ (P48736 whole entry): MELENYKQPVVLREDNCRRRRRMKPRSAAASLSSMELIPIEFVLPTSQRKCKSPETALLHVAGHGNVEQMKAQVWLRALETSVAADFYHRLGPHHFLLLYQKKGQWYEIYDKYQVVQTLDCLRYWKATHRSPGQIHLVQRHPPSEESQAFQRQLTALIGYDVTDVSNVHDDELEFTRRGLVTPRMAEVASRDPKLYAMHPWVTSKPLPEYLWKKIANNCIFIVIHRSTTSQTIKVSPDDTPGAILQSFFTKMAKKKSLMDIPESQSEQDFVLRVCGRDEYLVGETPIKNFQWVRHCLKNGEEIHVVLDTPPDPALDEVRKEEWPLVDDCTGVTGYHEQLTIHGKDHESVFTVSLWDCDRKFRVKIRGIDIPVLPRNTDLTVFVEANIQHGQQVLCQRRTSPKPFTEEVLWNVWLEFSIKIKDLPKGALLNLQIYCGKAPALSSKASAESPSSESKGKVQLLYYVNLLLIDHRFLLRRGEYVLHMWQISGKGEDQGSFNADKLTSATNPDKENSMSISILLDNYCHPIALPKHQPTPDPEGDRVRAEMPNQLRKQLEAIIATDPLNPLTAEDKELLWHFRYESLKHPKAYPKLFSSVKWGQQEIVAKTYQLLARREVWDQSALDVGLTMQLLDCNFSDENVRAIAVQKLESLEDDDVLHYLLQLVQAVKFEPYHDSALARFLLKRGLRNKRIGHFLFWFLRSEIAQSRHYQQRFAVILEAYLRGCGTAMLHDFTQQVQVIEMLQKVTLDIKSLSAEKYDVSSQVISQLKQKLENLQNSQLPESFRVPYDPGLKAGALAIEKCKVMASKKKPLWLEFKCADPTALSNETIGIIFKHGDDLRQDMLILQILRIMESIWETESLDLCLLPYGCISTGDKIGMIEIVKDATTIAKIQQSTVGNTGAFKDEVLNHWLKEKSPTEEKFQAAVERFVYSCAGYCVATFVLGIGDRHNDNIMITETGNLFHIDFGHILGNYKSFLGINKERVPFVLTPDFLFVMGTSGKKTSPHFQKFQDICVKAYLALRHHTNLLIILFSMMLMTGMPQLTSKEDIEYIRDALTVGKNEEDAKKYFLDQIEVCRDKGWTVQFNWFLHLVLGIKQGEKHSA
T1 sequence (P08684 whole entry): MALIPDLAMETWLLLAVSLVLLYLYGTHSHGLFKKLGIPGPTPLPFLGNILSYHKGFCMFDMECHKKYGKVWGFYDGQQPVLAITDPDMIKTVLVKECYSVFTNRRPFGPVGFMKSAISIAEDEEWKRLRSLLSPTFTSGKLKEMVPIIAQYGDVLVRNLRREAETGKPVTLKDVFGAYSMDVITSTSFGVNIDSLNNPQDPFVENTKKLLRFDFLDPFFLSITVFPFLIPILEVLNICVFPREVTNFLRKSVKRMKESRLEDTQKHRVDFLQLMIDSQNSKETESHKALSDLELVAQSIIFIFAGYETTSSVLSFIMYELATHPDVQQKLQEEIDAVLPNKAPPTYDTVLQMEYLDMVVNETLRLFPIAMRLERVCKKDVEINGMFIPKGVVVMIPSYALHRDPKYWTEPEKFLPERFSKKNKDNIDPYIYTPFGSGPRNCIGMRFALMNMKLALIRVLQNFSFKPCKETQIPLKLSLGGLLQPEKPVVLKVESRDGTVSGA
T4 sequence (P33261 whole entry): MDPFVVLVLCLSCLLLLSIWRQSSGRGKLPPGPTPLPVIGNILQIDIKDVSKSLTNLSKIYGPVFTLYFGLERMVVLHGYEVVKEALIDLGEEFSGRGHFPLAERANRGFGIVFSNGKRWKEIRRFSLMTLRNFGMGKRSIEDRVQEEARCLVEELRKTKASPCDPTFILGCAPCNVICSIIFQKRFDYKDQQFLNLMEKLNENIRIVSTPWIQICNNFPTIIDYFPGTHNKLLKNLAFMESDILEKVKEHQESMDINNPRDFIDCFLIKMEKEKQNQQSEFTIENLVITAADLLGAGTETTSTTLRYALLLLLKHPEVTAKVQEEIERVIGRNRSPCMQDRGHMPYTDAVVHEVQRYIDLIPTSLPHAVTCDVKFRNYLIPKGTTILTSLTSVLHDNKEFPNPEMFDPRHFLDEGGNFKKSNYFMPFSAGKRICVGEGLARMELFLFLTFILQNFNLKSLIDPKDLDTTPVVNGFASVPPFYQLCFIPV
T2 sequence (P11712 whole entry): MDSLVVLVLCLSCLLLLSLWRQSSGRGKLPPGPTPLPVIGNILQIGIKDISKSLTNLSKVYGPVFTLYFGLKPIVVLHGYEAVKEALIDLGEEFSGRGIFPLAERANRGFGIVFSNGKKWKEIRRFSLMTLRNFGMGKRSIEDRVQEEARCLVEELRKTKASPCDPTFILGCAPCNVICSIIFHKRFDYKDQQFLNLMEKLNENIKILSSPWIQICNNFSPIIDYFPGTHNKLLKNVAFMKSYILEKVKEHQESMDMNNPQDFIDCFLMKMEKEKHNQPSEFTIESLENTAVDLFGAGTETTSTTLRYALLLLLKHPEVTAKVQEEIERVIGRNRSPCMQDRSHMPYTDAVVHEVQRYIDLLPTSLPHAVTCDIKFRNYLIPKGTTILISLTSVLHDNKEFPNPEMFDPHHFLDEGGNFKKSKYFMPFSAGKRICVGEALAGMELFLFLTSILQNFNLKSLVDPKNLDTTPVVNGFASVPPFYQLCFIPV

Row | Compound | inhibition at 10 µM [2] [%] | also measured
1 | CNC(=O)Nc1cc2n(n1)CCN2c1cccc(OC)c1 [Compound I-61] | – | solubility at 16 h [1]: > 50 µM; inhibition at 50 µM [2]: ≥ 95%
2 | CNC(=O)Nc1cc2n(n1)CCN2c1ccc(C(=O)O)s1 [Compound I-217] | – | IC50 [3]: > 20 µM; solubility at 16 h [1]: > 50 µM; IC50 [4]: > 20 µM; IC50 [5]: > 20 µM; inhibition at 50 µM [2]: ≥ 95%; IC50 [6]: > 20 µM; IC50 [7]: > 20 µM
3 | CC(=O)Nc1cc2n(n1)CCN2c1ccc2c(c1)CCCN2.Cl.Cl [Compound I-319] | ≥ 95 | solubility at 16 h [1]: > 50 µM
4 | CN1CCc2cc(N3CCn4nc(NC(=O)CC5CCNC5)cc43)ccc2C1=O.Cl.Cl (stereo not shown) [Compound I-356] | ≥ 95 | IC50 [3]: > 20 µM; solubility at 16 h [1]: > 50 µM; IC50 [4]: > 20 µM; IC50 [5]: > 20 µM; IC50 [6]: > 20 µM; IC50 [7]: > 20 µM
5 | CC(C)NC(=O)c1csc(C(=O)Nc2cc3n(n2)CCN3c2ccc3c(c2)CCN(C)C3=O)c1 [Compound I-402] | 91 | IC50 [3]: > 20 µM; IC50 [4]: > 20 µM; IC50 [5]: > 20 µM; IC50 [6]: > 20 µM; IC50 [7]: > 20 µM
6 | CN(C)C(=O)c1cc(C(=O)Nc2cc3n(n2)CCN3c2ccc3c(c2)CCN(C)C3=O)cs1 [Compound I-432] | ≥ 95 | IC50 [3]: > 20 µM; IC50 [4]: > 20 µM; IC50 [5]: > 20 µM; IC50 [6]: > 20 µM; IC50 [7]: > 20 µM
7 | CNc1ccccc1C(=O)Nc1cc2n(n1)CCN2c1ccc2c(c1)CCN(C)C2=O [Compound I-494] | 78 | –
8 | CC(C)NC(=O)Cc1cc(C(=O)Nc2cc3n(n2)CCN3c2ccc3c(c2)CCN(C)C3=O)cs1 [Compound I-495] | ≥ 95 | –
9 | CCCNC(=O)Cc1cc(C(=O)Nc2cc3n(n2)CCN3c2ccc3c(c2)CCN(C)C3=O)cs1 [Compound I-496] | ≥ 95 | –
10 | CN1CCc2cc(N3CCn4nc(NC(=O)c5ccccc5N)cc43)ccc2C1=O [Compound I-500] | 81 | –
11 | CCOC(=O)CNC(=O)Nc1cc2n(n1)CCN2c1ccc2c(c1)CCN(C)C2=O [Compound I-501] | 81 | –
12 | CN1CCc2cc(N3CCn4nc(NC(=O)[C@@H]5CCC(=O)N5)cc43)ccc2C1=O [Compound I-506] | 84 | –
13 | CC(C)NC(=O)c1ccccc1NC(=O)Nc1nc2c(s1)CN(C(=O)c1cccc(Cl)c1)CC2 [Compound I-511] | 75 | –
14 | Cc1cccc(C(=O)N2CCc3nc(NC(=O)Nc4ccccc4C(=O)NC(C)C)sc3C2)c1 [Compound I-514] | 76 | –
15 | Cc1ccc(C(=O)N2CCc3nc(NC(=O)Nc4ccccc4C(=O)NC(C)C)sc3C2)cc1 [Compound I-515] | 85 | –
16 | CN1CCc2cc(N3CCn4nc(NC(=O)NCC(=O)O)cc43)ccc2C1=O [Compound I-522] | 94 | –
17 | CN1CCc2cc(N3CCn4nc(NC(=O)c5ccc(C(=O)O)cc5)cc43)ccc2C1=O [Compound I-524] | 92 | –
18 | CN1CCc2cc(N3CCn4nc(NC(=O)c5cnc(N6CCC[C@H]6C(=O)OC(C)(C)C)s5)cc43)ccc2C1=O [Compound I-525] | 94 | –
19 | CCCNS(=O)(=O)c1ccc(C(=O)Nc2cc3n(n2)CCN3c2ccc3c(c2)CCN(C)C3=O)cc1 [Compound I-526] | 90 | –

Row | Compound | inhibition at 10 µM [2] [%] | also measured
20 | CC(C)NS(=O)(=O)c1ccc(C(=O)Nc2cc3n(n2)CCN3c2ccc3c(c2)CCN(C)C3=O)cc1 [Compound I-527] | 79 | –
21 | COc1cc(N2CCc3nc(NC(=O)N4CC(C(=O)NC(C)C)C4)sc3C2)nc(OC)n1 [Compound I-528] | 76 | –
22 | COc1cc(N2CCc3nc(NC(=O)C4CN(C(=O)OC(C)(C)C)C4)sc3C2)nc(OC)n1 [Compound I-529] | 82 | –
23 | CN1CCc2cc(N3CCn4nc(NC(=O)NCCC(=O)OC(C)(C)C)cc43)ccc2C1=O [Compound I-530] | 92 | –
24 | CC(=O)Nc1ncc(C(=O)Nc2cc3n(n2)CCN3c2ccc3c(c2)CCN(C)C3=O)s1 [Compound I-531] | 75 | –
25 | CC(C)CC(=O)Nc1ncc(C(=O)Nc2cc3n(n2)CCN3c2ccc3c(c2)CCN(C)C3=O)s1 [Compound I-533] | 95 | –
26 | CC(C)CNC(=O)c1ccc(C(=O)Nc2cc3n(n2)CCN3c2ccc3c(c2)CCN(C)C3=O)cc1 [Compound I-534] | 91 | –
27 | CN1CCc2cc(N3CCn4nc(NC(=O)c5cnc(N6CCC[C@H]6C(=O)O)s5)cc43)ccc2C1=O [Compound I-536] | ≥ 95 | –
28 | CN1CCc2cc(N3CCn4nc(NC(=O)NCCC(=O)O)cc43)ccc2C1=O [Compound I-537] | 87 | –
29 | CC(C)CCNC(=O)CCNC(=O)Nc1cc2n(n1)CCN2c1ccc2c(c1)CCN(C)C2=O [Compound I-538] | 94 | –
30 | CN(C)C(=O)Nc1cc2n(n1)CCN2c1ccc2c(c1)CCN(C)C2=O [Compound I-539] | ≥ 95 | –
31 | COc1cc(N2CCc3nc(NC(=O)NCC4(C(=O)NC(C)C)CC4)sc3C2)nc(OC)n1 [Compound I-546] | 86 | –
32 | COc1cc(N2CCc3nc(NC(=O)NCC(C)C(=O)NC(C)C)sc3C2)nc(OC)n1 (stereo not shown) [Compound I-547] | ≥ 95 | –
33 | COCCOc1ccc(C(=O)Nc2cc3n(n2)CCN3c2ccc3c(c2)CCN(C)C3=O)cc1 [Compound I-549] | ≥ 95 | –
34 | CC(C)NC(=O)c1ccccc1NC(=O)Nc1nc2c(s1)CN(C(=O)c1ccc(O)cc1)CC2 [Compound I-550] | 81 | –
35 | CC(C)CCOc1ccc(C(=O)Nc2cc3n(n2)CCN3c2ccc3c(c2)CCN(C)C3=O)cc1 [Compound I-551] | 84 | –
36 | COc1cc(N2CCc3nc(NC(=O)C4CCCCC4)sc3C2)nc(OC)n1 [Compound I-552] | 88 | –
37 | COc1nc(Cl)cc(N2CCc3nc(NC(=O)NCCC(=O)NC(C)C)sc3C2)n1 [Compound I-554] | 88 | –

Source: patent publication US20110230472A1, “RING-FUSED AZOLE DERIVATIVE HAVING PI3K-INHIBITING ACTIVITY” (Shionogi & Co., Ltd., priority 2008, published 2011)
